{"source": "paper PMC5380162", "about": "“Characterization of a novel N-acetylneuraminic acid lyase favoring N-acetylneuraminic acid synthesis” (Scientific Reports, 2015)", "type_in_all_cases": "biochemical", "key": {"[1]": {"biological_target": "T1, EcDHDPS (Escherichia coli, UniProt P0A6L2)", "T1 construct": "gene dapA; dapA amplified from E. coli genomic DNA into pET-28a(+), expressed in E. coli Rosetta, Ni-NTA", "T1 sequence (P0A6L2 1-292)": "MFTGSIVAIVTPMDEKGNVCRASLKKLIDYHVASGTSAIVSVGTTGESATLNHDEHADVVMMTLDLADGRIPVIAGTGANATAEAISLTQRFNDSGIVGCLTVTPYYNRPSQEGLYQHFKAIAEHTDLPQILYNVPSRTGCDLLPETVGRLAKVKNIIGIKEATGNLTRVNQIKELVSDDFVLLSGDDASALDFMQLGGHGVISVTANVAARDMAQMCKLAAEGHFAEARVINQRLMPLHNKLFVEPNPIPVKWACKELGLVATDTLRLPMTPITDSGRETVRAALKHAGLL", "test": "coupled enzymatic assay (Yugari and Gilvarg)", "conditions": "co-substrate pyruvate"}, "[2]": {"biological_target": "T2, CgNal (Corynebacterium glutamicum, UniProt Q8NMD2)", "T2 construct": "gene Cgl2646; full length 312 aa (939 bp ORF), pET-28a(+), N-terminal His6-tag, E. coli Rosetta (DE3) pLysS, ~33 kDa, Ni-NTA; NAL family homotetramer", "T2 sequence (Q8NMD2 entry or part of it)": "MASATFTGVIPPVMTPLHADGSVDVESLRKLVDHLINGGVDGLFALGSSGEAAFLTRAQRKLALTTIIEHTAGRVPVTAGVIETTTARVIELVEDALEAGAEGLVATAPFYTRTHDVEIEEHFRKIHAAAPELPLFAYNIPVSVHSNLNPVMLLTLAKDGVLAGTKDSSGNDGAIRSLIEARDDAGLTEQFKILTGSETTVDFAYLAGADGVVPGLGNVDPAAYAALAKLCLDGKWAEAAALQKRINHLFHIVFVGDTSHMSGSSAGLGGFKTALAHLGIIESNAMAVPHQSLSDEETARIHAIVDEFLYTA", "test": "HPLC of substrates and products, Neu5Ac cleavage", "conditions": "read-out: Neu5Ac Cleavage / Neu5Ac / Km; 0.1 M Tris-HCl pH 7.5, assay at 37 °C; cleavage direction", "description": "HPLC of substrates and products, Neu5Ac cleavage on CgNal"}, "[3]": {"biological_target": "T2, CgNal", "test": "HPLC of substrates and products, Neu5Ac synthesis", "conditions": "0.1 M Tris-HCl pH 7.5, assay at 37 °C, synthesis direction", "description": "HPLC of substrates and products, Neu5Ac synthesis on CgNal"}}}
{"smiles": "N[C@@H](CC=O)C(=O)O", "note": "[ASA]", "values": [{"measurement": "coupled enzymatic assay (Yugari and Gilvarg)", "setting": "[1]", "result": "Using ASA as substrate, CgNal showed only half the activity of EcDHDPS"}]}
{"smiles": "CC(=O)N[C@H]1[C@H]([C@H](O)[C@H](O)CO)OC(O)(C(=O)O)C[C@@H]1O", "note": "(stereo partly shown) [Neu5Ac]", "values": [{"measurement": "Km", "setting": "[2]", "result": 33.5, "unit": "mM"}]}
{"smiles": "CC(=O)N[C@@H]1C(O)O[C@H](CO)[C@@H](O)[C@@H]1O", "note": "(stereo partly shown) [ManNAc]", "values": [{"measurement": "Km", "setting": "[3]; read-out: Neu5Ac Synthesis / ManNAc / Km, pyruvate fixed at 100 mM", "result": 53.3, "unit": "mM"}]}
{"smiles": "CC(=O)C(=O)O", "note": "[pyruvate]", "values": [{"measurement": "Km", "setting": "[3]; read-out: Neu5Ac Synthesis / Pyruvate / Km, ManNAc fixed at 50 mM", "result": 14.7, "unit": "mM"}]}
